Data as given in ChEMBL document CHEMBL1122718, “Benzylamines: synthesis and evaluation of antimycobacterial properties” (1984).

Tests used:
Type in all cases: functional
[1] = system: Mycobacterium tuberculosis; assay: Compound was evaluated for the minimum inhibitory concentration (MIC) against Mycobacterium tuberculosis H 37 Rv
[2] = system: Mycobacterium tuberculosis; assay: Minimum inhibitory concentration (MIC) against Mycobacterium tuberculosis H 37 Ra
Mycobacterium avium = assay: Minimum inhibitory concentration (MIC) of compound against Mycobacterium avium SN 304
[3] = system: Mycolicibacterium smegmatis; assay: Minimum inhibitory concentration (MIC) of compound against Mycobacterium smegmatis ATCC 607
Mycobacterium lufu = assay: Minimum inhibitory concentration (MIC) of compound against Mycobacterium lufu L 209
Mycobacterium marinum = assay: Minimum inhibitory concentration (MIC) of compound against Mycobacterium marinum SN 1254
[4] = system: Mycobacterium tuberculosis; assay: Minimum inhibitory concentration (MIC) of compound against Mycobacterium tuberculosis H 37 Rv
[5] = system: Mycobacterium tuberculosis; assay: Compound was evaluated for the synergistic effect in combination with capreomycin for the inhibition of Mycobacterium tuberculosis H 37 Ra, using middlebrook 7H9 medium (liquid)
[6] = system: Mycobacterium tuberculosis; assay: Compound was evaluated for the synergistic effect in combination with dapsone for the inhibition of Mycobacterium tuberculosis H 37 Ra, using middlebrook 7H9 medium (liquid)
[7] = system: Mycobacterium tuberculosis; assay: Compound was evaluated for the synergistic effect in combination with isoniazid for the inhibition of Mycobacterium tuberculosis H 37 Ra, using middlebrook 7H9 medium (liquid)
[8] = system: Mycobacterium tuberculosis; assay: Fractional inhibitory concentration (FIC) was determined for the compound in combination of Isoniazid
[9] = system: Mycobacterium tuberculosis; assay: Compound was evaluated for the synergistic effect in combination with tetracycline hydrochloride for the inhibition of Mycobacterium tuberculosis H 37 Ra, using Lowenstein-Jensen medium (solid)
[10] = system: Mycobacterium tuberculosis; assay: Compound was evaluated for the synergistic effect in combination with benzaldehyde thiosemicarbazone for the inhibition of Mycobacterium tuberculosis H 37 Ra, using Lowenstein-Jensen medium (solid)
[11] = system: Mycobacterium tuberculosis; assay: Compound was evaluated for the synergistic effect in combination with tetracycline hydrochloride for the inhibition of Mycobacterium tuberculosis H 37 Ra, using middlebrook 7H9 medium (liquid)
[12] = system: Mycobacterium tuberculosis; assay: Fractional inhibitory concentration (FIC) was determined for the compound in combination of Cycloserine
[13] = system: Mycobacterium tuberculosis; assay: Compound was evaluated for the synergistic effect in combination with ethionamide for the inhibition of Mycobacterium tuberculosis H 37 Ra, using Lowenstein-Jensen medium (solid)
[14] = system: Mycobacterium tuberculosis; assay: Fractional inhibitory concentration (FIC) was determined for the compound in combination of Rifampicin
[15] = system: Mycobacterium tuberculosis; assay: Compound was evaluated for the synergistic effect in combination with ethionamide for the inhibition of Mycobacterium tuberculosis H 37 Ra, using middlebrook 7H9 medium (liquid)
[16] = system: Mycobacterium tuberculosis; assay: Fractional inhibitory concentration (FIC) was determined for the compound in combination of Tetracycline hydrochloride
[17] = system: Mycobacterium tuberculosis; assay: Compound was evaluated for the synergistic effect in combination with cycloserine for the inhibition of Mycobacterium tuberculosis H 37 Ra, using Lowenstein-Jensen medium (solid)
[18] = system: Mycobacterium tuberculosis; assay: Fractional inhibitory concentration (FIC) was determined for the compound in combination of Ethionamide
[19] = system: Mycobacterium tuberculosis; assay: Compound was evaluated for the synergistic effect in combination with ethambutol for the inhibition of Mycobacterium tuberculosis H 37 Ra, using middlebrook 7H9 medium (liquid)
[20] = system: Mycobacterium tuberculosis; assay: Compound was evaluated for the synergistic effect in combination with dapsone for the inhibition of Mycobacterium tuberculosis H 37 Ra, using Lowenstein-Jensen medium (solid)
[21] = system: Mycobacterium tuberculosis; assay: Compound was evaluated for the synergistic effect in combination with trimethoprim for the inhibition of Mycobacterium tuberculosis H 37 Ra, using Lowenstein-Jensen medium (solid)
[22] = system: Mycobacterium tuberculosis; assay: Compound was evaluated for the synergistic effect in combination with trimethoprim for the inhibition of Mycobacterium tuberculosis H 37 Ra, using middlebrook 7H9 medium (liquid)
[23] = system: Mycobacterium tuberculosis; assay: Compound was evaluated for the synergistic effect in combination with isoniazid for the inhibition of Mycobacterium tuberculosis H 37 Ra, using Lowenstein-Jensen medium (solid)
[24] = system: Mycobacterium tuberculosis; assay: Fractional inhibitory concentration (FIC) was determined for the compound in combination of Aminosalicylic acid
[25] = system: Mycobacterium tuberculosis; assay: Fractional inhibitory concentration (FIC) was determined for the compound in combination of Capreomycin
[26] = system: Mycobacterium tuberculosis; assay: Compound was evaluated for the synergistic effect in combination with rifampicin for the inhibition of Mycobacterium tuberculosis H 37 Ra, using middlebrook 7H9 medium (liquid)
[27] = system: Mycobacterium tuberculosis; assay: Compound was evaluated for the synergistic effect in combination with rifampicin for the inhibition of Mycobacterium tuberculosis H 37 Ra, using Lowenstein-Jensen medium (solid)
[28] = system: Mycobacterium tuberculosis; assay: Compound was evaluated for the synergistic effect in combination with aminosalicylic acid for the inhibition of Mycobacterium tuberculosis H 37 Ra, using middlebrook 7H9 medium (liquid)
[29] = system: Mycobacterium tuberculosis; assay: Compound was evaluated for the synergistic effect in combination with streptomycin sulfate for the inhibition of Mycobacterium tuberculosis H 37 Ra, using Lowenstein-Jensen medium (solid)
[30] = system: Mycobacterium tuberculosis; assay: Fractional inhibitory concentration (FIC) was determined for the compound in combination of trimethoprim
[31] = system: Mycobacterium tuberculosis; assay: Compound was evaluated for the synergistic effect in combination with benzaldehyde thiosemicarbazone for the inhibition of Mycobacterium tuberculosis H 37 Ra, using middlebrook 7H9 medium (liquid)
[32] = system: Mycobacterium tuberculosis; assay: Compound was evaluated for the synergistic effect in combination with cycloserine for the inhibition of Mycobacterium tuberculosis H 37 Ra, using middlebrook 7H9 medium (liquid)
[33] = system: Mycobacterium tuberculosis; assay: Fractional inhibitory concentration (FIC) was determined for the compound in combination of Ethambutol
[34] = system: Mycobacterium tuberculosis; assay: Compound was evaluated for the synergistic effect in combination with capreomycin for the inhibition of Mycobacterium tuberculosis H 37 Ra, using Lowenstein-Jensen medium (solid)
[35] = system: Mycobacterium tuberculosis; assay: Compound was evaluated for the synergistic effect in combination with streptomycin sulfate for the inhibition of Mycobacterium tuberculosis H 37 Ra, using middlebrook 7H9 medium (liquid)
[36] = system: Mycobacterium tuberculosis; assay: Fractional inhibitory concentration (FIC) was determined for the compound in combination of Benzaldehyde thiosemicarbazone
[37] = system: Mycobacterium tuberculosis; assay: Compound was evaluated for the synergistic effect in combination with ethambutol for the inhibition of Mycobacterium tuberculosis H 37 Ra, using Lowenstein-Jensen medium (solid)
[38] = system: Mycobacterium tuberculosis; assay: Fractional inhibitory concentration (FIC) was determined for the compound in combination of Streptomycin sulfate
[39] = system: Mycobacterium tuberculosis; assay: Fractional inhibitory concentration (FIC) was determined for the compound in combination of Dapsone
[40] = system: Mycobacterium tuberculosis; assay: Compound was evaluated for the synergistic effect in combination with aminosalicylic acid for the inhibition of Mycobacterium tuberculosis H 37 Ra, using Lowenstein-Jensen medium (solid)

Work on CCCCNCc1cccc(F)c1.Cl yielded an MIC [1] of 30 µg/mL and an MIC [2] of 25.6 µg/mL.

Work on CCCCNCc1cc(F)cc(F)c1.Cl yielded an MIC (Mycobacterium avium) of 3 µg/mL, an MIC [3] of 32 µg/mL and an MIC (Mycobacterium lufu) of 8 µg/mL. For the same compound, the MIC [2] was 6.4 µg/mL, the MIC (Mycobacterium marinum) was 6 µg/mL and the MIC [4] was 4 µg/mL.

For CCCNCc1cccc(F)c1.Cl, the MIC [2] was 25.6 µg/mL.

In the case of CCCNCc1ccc(C(F)(F)F)cc1.Cl, the MIC [2] was over 256 µg/mL.

CCCCNCc1cc(F)cc(Cl)c1.Cl showed an MIC [2] of 19.2 µg/mL.

In the case of CCCCNCc1cccc(I)c1.Cl, the MIC [2] was 205 µg/mL.

Work on CCCCNCc1cccc(C#N)c1.Cl yielded an MIC [2] of 51.2 µg/mL.

CCCNCc1cc(Cl)ccc1Cl.Cl was tested, and the MIC [2] was over 256 µg/mL.

For CCCCNCc1ccccc1.Cl, the MIC [2] was 51.2 µg/mL.

In the case of Cl.NCc1cccc(C(F)(F)F)c1, the MIC [2] was over 256 µg/mL.

Work on CCCCNCc1ccc(Cl)cc1.Cl yielded an MIC [2] of over 256 µg/mL.

With CNCc1ccccc1.Cl the MIC [2] was 102 µg/mL.

CCCNCc1ccc(Cl)c(Cl)c1.Cl gave an MIC [2] of over 256 µg/mL.

Compound CCCCNCc1ccc(Cl)cc1Cl.Cl has an MIC [2] of over 256 µg/mL.

Work on CNCc1cccc(F)c1.Cl yielded an MIC [2] of 19.2 µg/mL.

CCNCc1ccc(Cl)cc1Cl.Cl was tested, and the MIC [2] was over 256 µg/mL.

For CCCCCCCNCc1ccccc1.Cl, the MIC [2] was over 256 µg/mL.

CCNCc1cccc(F)c1.Cl was tested, and the MIC [2] was 51.2 µg/mL.

Compound CCCCCNCc1cc(F)cc(F)c1.Cl has an MIC [2] of 32 µg/mL.

Work on CCCCCNCc1cc(Cl)cc(Cl)c1.Cl yielded an MIC [2] of 128 µg/mL.

Work on CCCCNCc1cc(Cl)cc([N+](=O)[O-])c1.Cl yielded an MIC [2] of 205 µg/mL.

CNCc1cccc(C(F)(F)F)c1.Cl was tested, and the MIC [2] was over 256 µg/mL.

With CCCNCc1c(Cl)cccc1Cl.Cl the MIC [2] was over 256 µg/mL.

Work on CCNCc1cc(Cl)cc(Cl)c1.Cl yielded an MIC [2] of 17.9 µg/mL.

In the case of CCCNCc1cccc([N+](=O)[O-])c1.Cl, the MIC [2] was over 256 µg/mL.

Compound CNCc1cccc(Br)c1.Cl has an MIC [2] of 19.2 µg/mL.

With CCCCNCc1ccccc1Br.Cl the MIC [2] was over 256 µg/mL.

Cl.NCc1cccc(Br)c1 showed an MIC [2] of 32 µg/mL.

CCCNCc1cccc(C(F)(F)F)c1.Cl showed an MIC [2] of over 256 µg/mL.

CNCc1cc(Cl)cc(Cl)c1.Cl showed an MIC [5] of 0.5 µg/mL, an MIC [6] of 32 µg/mL and an MIC [7] of 0.1 µg/mL. It also gave an FIC index [8] of 1, an MIC [9] of 7.68 µg/mL and an MIC [10] of 0.179 µg/mL. It also gave an MIC [11] of 2 µg/mL, an MIC (Mycobacterium avium) of 4 µg/mL and an FIC index [12] of 1. For the same compound, the MIC [13] was 6.4 µg/mL, the FIC index [14] was 0.5 and the MIC [15] was 1 µg/mL. For the same compound, the FIC index [16] was 1, the MIC [3] was 32 µg/mL and the MIC [17] was 25.6 µg/mL. It also gave an MIC (Mycobacterium lufu) of 4 µg/mL, an FIC index [18] of 1 and an MIC [19] of 5 µg/mL. For the same compound, the MIC [20] was 5.12 µg/mL, the MIC [21] was 179 µg/mL and the MIC [22] was 256 µg/mL. The MIC [23] was 0.03 µg/mL, the MIC [2] was 10.2 µg/mL and the FIC index [24] was 0.0625. It also gave an FIC index [25] of 1, an MIC [26] of 0.01 µg/mL and an MIC [27] of 0.512 µg/mL. It also gave an MIC [28] of 0.05 µg/mL, an MIC [29] of 7.68 µg/mL and an FIC index [30] of 0.5. For the same compound, the MIC [31] was 0.1 µg/mL, the MIC [32] was 32 µg/mL and the MIC (Mycobacterium marinum) was 4 µg/mL. For the same compound, the FIC index [33] was 1, the MIC [34] was 4.47 µg/mL and the MIC [35] was 0.1 µg/mL. It also gave an FIC index [36] of 0.25, an MIC [37] of 1 µg/mL and an FIC index [38] of 0.125. The MIC [4] was 3 µg/mL, the FIC index [39] was 0.031 and the MIC [40] was 0.025 µg/mL.

With CNCc1ccc(Cl)c(Cl)c1.Cl the MIC [2] was over 256 µg/mL.

Work on CNCc1ccc(Cl)cc1Cl.Cl yielded an MIC [2] of over 256 µg/mL.

Compound CCNCc1cccc(I)c1.Cl has an MIC [2] of over 256 µg/mL.

With Cl.NCc1ccc(C(F)(F)F)cc1 the MIC [2] was over 256 µg/mL.

CCCNCc1cc(F)cc(F)c1.Cl was tested, and the MIC [2] was 19.2 µg/mL.

Work on CCCNCc1ccc(OC)cc1.Cl yielded an MIC [2] of over 256 µg/mL.

CCNCc1ccc(Cl)c(Cl)c1.Cl was tested, and the MIC [2] was over 256 µg/mL.

With CCNCc1cccc(Br)c1.Cl the MIC [2] was 64 µg/mL.

Compound CCCCCCNCc1ccccc1.Cl has an MIC [2] of over 256 µg/mL.

CNCc1cccc(C#N)c1.Cl was tested, and the MIC [2] was 51.2 µg/mL.

Compound CCCCNCc1ccc(Cl)c(Cl)c1.Cl has an MIC [2] of over 256 µg/mL.

Work on CNCc1ccccc1Cl.Cl yielded an MIC [2] of over 256 µg/mL.

For CCCNCc1cc(Cl)cc([N+](=O)[O-])c1.Cl, the MIC [2] was 102 µg/mL.

Work on Cl.NCc1cccc(Cl)c1 yielded an MIC [2] of 17.9 µg/mL.

In the case of CCCCCCCCNCc1ccccc1.Cl [BENZYL(OCTYL)AMINE HYDROCHLORIDE], the MIC [2] was over 256 µg/mL.

Cl.NCc1cccc(F)c1 showed an MIC [2] of 51.2 µg/mL.
